Measured values: ChEMBL document CHEMBL5236577, “Targeting Aggrecanases for Osteoarthritis Therapy: From Zinc Chelation to Exosite Inhibition” (J Med Chem, 2022)

Tests used:
[1] = biological target: Collagenase 3 (Homo sapiens, UniProt P45452); test: Inhibition of recombinant human MMP13
[2] = biological target: T1, A disintegrin and metalloproteinase with thrombospondin motifs 4 (Homo sapiens, UniProt O75173); test: Inhibition of recombinant human ADAMTS-4
T1 sequence (O75173 whole entry): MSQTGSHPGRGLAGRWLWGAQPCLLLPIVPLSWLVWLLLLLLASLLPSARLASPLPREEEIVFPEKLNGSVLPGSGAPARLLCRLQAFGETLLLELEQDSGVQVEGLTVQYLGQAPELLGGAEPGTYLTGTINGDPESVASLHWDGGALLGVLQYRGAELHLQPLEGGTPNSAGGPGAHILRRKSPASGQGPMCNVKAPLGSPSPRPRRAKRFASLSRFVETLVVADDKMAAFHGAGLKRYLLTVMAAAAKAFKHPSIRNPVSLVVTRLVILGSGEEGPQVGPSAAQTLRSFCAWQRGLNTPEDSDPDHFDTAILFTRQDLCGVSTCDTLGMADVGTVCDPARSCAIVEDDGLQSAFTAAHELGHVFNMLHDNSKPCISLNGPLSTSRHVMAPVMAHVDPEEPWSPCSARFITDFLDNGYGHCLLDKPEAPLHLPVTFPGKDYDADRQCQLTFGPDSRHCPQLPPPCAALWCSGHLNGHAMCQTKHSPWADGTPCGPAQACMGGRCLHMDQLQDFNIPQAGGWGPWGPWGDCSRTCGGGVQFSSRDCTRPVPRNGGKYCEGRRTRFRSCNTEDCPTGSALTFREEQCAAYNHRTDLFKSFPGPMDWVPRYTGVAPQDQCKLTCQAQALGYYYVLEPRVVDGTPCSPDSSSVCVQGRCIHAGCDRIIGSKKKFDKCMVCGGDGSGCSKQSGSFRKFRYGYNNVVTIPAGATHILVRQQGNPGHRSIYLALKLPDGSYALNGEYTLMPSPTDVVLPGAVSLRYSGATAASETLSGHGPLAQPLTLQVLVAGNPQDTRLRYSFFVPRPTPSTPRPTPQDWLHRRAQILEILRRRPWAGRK

[3] = biological target: 72 kDa type IV collagenase (Homo sapiens, UniProt P08253); test: Inhibition of recombinant human MMP2
Chain of 72 kDa type IV collagenase (P08253 whole entry): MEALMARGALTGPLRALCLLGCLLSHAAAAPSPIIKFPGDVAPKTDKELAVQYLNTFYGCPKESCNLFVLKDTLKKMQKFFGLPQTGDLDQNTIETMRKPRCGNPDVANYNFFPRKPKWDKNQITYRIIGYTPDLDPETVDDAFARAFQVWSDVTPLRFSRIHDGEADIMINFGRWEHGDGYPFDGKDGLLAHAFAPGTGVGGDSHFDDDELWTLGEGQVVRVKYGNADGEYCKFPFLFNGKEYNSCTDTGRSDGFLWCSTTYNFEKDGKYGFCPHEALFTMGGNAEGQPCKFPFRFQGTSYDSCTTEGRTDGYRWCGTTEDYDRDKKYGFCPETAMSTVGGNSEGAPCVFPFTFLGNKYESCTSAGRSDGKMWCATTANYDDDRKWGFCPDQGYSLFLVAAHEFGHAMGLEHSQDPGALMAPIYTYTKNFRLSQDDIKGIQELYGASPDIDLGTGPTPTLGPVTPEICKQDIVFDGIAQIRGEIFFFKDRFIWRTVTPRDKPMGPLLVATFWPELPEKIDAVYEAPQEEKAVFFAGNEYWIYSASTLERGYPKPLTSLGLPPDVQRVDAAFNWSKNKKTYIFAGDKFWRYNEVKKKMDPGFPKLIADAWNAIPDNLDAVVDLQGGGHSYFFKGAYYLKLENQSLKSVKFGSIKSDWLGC

[4] = biological target: T2, A disintegrin and metalloproteinase with thrombospondin motifs 5 (Homo sapiens, UniProt Q9UNA0); test: Inhibition of recombinant human ADAMTS-5
T2 sequence (Q9UNA0 whole entry): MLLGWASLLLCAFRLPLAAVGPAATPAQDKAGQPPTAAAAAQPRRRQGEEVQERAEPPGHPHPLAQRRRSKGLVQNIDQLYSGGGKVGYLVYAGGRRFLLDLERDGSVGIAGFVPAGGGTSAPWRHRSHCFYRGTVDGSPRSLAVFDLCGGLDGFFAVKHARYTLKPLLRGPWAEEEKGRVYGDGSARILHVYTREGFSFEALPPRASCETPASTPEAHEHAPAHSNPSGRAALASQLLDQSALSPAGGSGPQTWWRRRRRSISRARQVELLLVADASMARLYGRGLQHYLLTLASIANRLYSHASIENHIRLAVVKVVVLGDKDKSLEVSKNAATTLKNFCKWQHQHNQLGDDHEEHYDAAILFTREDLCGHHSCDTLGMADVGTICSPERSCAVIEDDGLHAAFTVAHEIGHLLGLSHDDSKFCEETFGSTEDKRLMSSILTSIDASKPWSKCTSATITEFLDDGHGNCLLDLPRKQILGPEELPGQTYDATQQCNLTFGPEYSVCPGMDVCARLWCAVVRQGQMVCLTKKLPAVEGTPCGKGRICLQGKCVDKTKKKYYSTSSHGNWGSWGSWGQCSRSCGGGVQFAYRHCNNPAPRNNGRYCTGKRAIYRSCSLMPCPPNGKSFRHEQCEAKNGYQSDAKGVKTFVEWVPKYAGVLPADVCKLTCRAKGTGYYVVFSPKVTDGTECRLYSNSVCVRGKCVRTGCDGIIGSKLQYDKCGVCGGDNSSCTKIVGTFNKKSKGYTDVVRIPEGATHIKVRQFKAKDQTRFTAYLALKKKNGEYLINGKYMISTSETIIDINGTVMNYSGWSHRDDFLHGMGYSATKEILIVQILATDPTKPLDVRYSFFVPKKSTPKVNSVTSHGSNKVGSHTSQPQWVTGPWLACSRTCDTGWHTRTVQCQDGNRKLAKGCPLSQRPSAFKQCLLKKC

[5] = biological target: T3, Matrilysin (Homo sapiens, UniProt P09237); test: Inhibition of recombinant human MMP7
T3 sequence (P09237 whole entry): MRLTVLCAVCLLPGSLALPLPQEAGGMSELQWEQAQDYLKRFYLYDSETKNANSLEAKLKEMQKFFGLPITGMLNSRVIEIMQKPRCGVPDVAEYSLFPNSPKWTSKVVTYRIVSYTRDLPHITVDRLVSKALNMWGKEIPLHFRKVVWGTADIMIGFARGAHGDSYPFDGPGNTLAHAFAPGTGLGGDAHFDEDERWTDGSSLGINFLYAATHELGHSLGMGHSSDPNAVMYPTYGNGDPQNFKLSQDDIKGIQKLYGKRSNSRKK

O=c1cc(-c2ccc(O)c(O)c2)oc2cc(O)cc(O)c12 [LUTEOLIN] was tested, and the IC50 [1] was 18.3 µM, the IC50 [2] was 9.8 µM and the IC50 [3] was 40.9 µM. For the same compound, the IC50 [4] was 12.2 µM and the IC50 [5] was 68.2 µM.
